One data set has as its target T1, hGR(I747/T) (Homo sapiens, UniProt P04150, I747T).
T1 construct: The same shift was observed as with the complete GR (I747/T) mutant; expressed in transfected cells
T1 sequence (P04150 1-777 I747T): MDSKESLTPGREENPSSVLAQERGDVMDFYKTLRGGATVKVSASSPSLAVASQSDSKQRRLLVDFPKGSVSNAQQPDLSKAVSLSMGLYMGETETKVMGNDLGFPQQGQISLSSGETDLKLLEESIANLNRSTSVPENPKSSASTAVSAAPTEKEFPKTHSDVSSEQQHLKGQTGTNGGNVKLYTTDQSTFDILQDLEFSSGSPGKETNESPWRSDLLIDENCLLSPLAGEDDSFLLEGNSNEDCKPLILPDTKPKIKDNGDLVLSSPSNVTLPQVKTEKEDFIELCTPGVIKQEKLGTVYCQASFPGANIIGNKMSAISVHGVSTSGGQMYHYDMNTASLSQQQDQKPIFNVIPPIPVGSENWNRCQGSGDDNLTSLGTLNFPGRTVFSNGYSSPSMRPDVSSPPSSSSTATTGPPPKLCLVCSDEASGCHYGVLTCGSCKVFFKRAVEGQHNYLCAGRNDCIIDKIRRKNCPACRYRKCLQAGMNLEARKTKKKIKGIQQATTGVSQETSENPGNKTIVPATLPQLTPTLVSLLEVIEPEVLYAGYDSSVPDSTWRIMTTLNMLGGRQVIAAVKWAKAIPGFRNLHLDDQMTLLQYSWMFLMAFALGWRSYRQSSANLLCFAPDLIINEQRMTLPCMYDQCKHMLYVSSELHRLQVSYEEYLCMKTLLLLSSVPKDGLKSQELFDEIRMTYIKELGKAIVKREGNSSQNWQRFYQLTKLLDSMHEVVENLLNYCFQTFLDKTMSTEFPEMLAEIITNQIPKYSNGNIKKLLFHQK
Description: Transcriptional activation of pTAT-tk-Luc luciferase reporter in transiently transfected CV-1 cells. Type of data set: cell-based. Conditions: for transactivation by the I747/T mutant receptor compared with wild-type receptor / Luciferase activity % hGR (I747/T) / EC50: CV-1 cells, pTAT-tk-Luc; for Luciferase activity % hGR (I747/T): 24 h ligand, mean of three independent assays; for EC50: ligand concentration giving 50% of maximum transcriptional response; for % EC50: EC50 hGR(I747/T) relative to EC50 wild type. How it is done: (§1) The receptors were transiently expressed in GR-free CV-1 cells, conjointly with a luciferase reporter gene under the control of the tyrosine aminotransferase promoter (pTAT-tk-Luc).
(§2) After transfection, the cells were incubated for 24 hours with increasing concentrations of Dex, and they were then subjected to an assay of the β-galactosidase and luciferase activities, as described in “Materials and Methods”. The luciferase activity was normalized with the β-galactosidase activity, and the value obtained in the absence of ligand was subtracted for each point. The results were expressed as a percentage of the maximum luciferase activity obtained for each receptor. Each point is the mean±standard deviation of the mean of four separate determinations carried out in duplicate. […] The [^3H] steroid attached was measured after treatment with dextran-coated charcoal. The results presented are those for a single assay carried out in duplicate and representative of three separate assays.
(§3) Co-transfections were carried out and dose-response curves were constructed as described in FIG. 2. […] The assays of luciferase and β-galactosidase activity were carried out as described in “Materials and Methods”. The mean values of three independent assays are given in this table. nm=not measurable.
(§4) The CV-1 and Cos-7 cells were cultured in Dulbeco's modified Eagle's medium (DMEM) containing 10% (v/v) of fetal calf serum (FCS) (Gibco, Grand Island, N.Y.), in a humidified atmosphere containing 5% CO2. The HeLa cells were cultured under the same conditions. Transient transfections were carried out in 6-well multiplates according to the calcium phosphate procedure already described (42). A reference recombinant plasmid, pCMV-βgal, expressing bacterial β-galactosidase, was transfected conjointly with the receptor expression vector and the corresponding reporter gene so as to correct possible variations in he transfection efficiency. The precipitate was removed by washing after 24 hours, and the cells were kept in DMEX without FCS but containing hormone. After another 24 hours, the cells were rinsed and lysed for 15 minutes with 0.3 ml of lysis buffer [25 mM Tris.phosphate, pH 7.8, 8 mM […], 1% Triton X100, 10% glycerol (48)]. The corresponding luciferase activity as determined on an aliquot fraction (0.1 ml), by evaluation of the luminescence peak (for an integration time of 15 seconds), after injection of 0.1 ml of 1 mM luciferin in an LKB luminometer. The β-galactosidase was determined by the method modified by Bocquel et al. (49), for controlling the efficiency of each transfection.
(§5) The reporter gene pTAT-tk-Luc was provided by D. Gagne and was constructed as follows: an intermediate plasmid pTAT was first generated by insertion of the 966 bp EcoRI-BamHI segment obtained from pKT531 [offered freely by T. Grande (50)] into the corresponding sites of the vector pUC19 (Pharmacia). The fragment containing the sequence coding for the firefly luciferase and the thymidine kinase (tk) minimal promoter obtained from the Herpes simplex virus was isolated in the form of a BamHI fragment from pvit-tk-Luc (51) and inserted, downstream of the TAT promoter, into the corresponding site of pTAT. The reporter plasmid pGRE-tk-Luc was constructed by ligation of the fragment of HindIII-BglII digestion of pGRE-tk-CAT (52), which contains a synthetic GRE (AGAACAcagTGTTCT) upstream of the tk minimal promoter, into the HindIII-BglII sites of pLuc (53). The reporter gene p(17M)5-βGlob-Luc has been previously described (54). The reporter plasmid p(17M)5-tata-Luc was constructed from the plasmid p(17M)5-tata-CAT (55) by digestion with XhoI-BamHI and isolation of the fragment containing (17M5)-tata. This fragment was then inserted into the vector pGL2 (Promega) digested with the same restriction enzymes.
In general terms: Reporter assays use an easily measured gene product as a stand-in for the process of interest.

The target in another data set is T2, wild-type hGR (Homo sapiens, UniProt P04150).
T2 construct: expressed in transfected cells
T2 sequence (P04150 1-777): T1 sequence (P04150 1-777 I747T) with T747I
The description is as above. Type of data set: cell-based. On the set-up: Luciferase activity % Wild type: concentration or dose not given beside the values. As to conditions: for Luciferase activity % Wild type: 24 h ligand, mean of three independent assays; for EC50: ligand concentration giving 50% of maximum transcriptional response. How it is done: as §1, §2, §3, §4, §5

Data set [1] addresses wild-type glucocorticoid receptor (hGR) T747I (reversion to wild type) (Homo sapiens) (UniProt P04150). Description: cell_activity. As to conditions: EC50 is for dexamethasone; luciferase reporter in CV-1 cells.
Data set [2] has as its target GR(I747/T) glucocorticoid receptor mutant (Homo sapiens) (UniProt P04150). The data set can be described thus: cell_activity. Conditions: EC50 is for dexamethasone; luciferase reporter in CV-1 cells; cortisol 15% and corticosterone/aldosterone 0% activity.
Data set [3] concerns Gal4(1-147)-GR(I747/T)(500-777) I747T (Saccharomyces cerevisiae / Homo sapiens). Description: cell_activity. Conditions: EC50 is for dexamethasone; p(17M)5-βGlob-Luc in HeLa cells; 2e-7 M with tata-Luc.
The test system of data set [4] is Gal4(1-147)-GR(500-777) (Saccharomyces cerevisiae / Homo sapiens). The data set can be described thus: cell_activity. Conditions: EC50 is for dexamethasone; p(17M)5-βGlob-Luc in HeLa cells; 2e-9 M with tata-Luc.
Data set [5] deals with T3, GR(I747/T) glucocorticoid receptor mutant (Homo sapiens, UniProt P04150 SEQ:1-777).
T3 chain: T1 sequence (P04150 1-777 I747T)
The data set can be described thus: cell_activity; EC50 is for dexamethasone; luciferase reporter in CV-1 cells. How it is done:
The $EC50$ values were determined graphically.
The HeLa cells were cultured under the same conditions.

Substitutions are numbered along the chain they refer to.

As for `CC1(C)O[C@@H]2C[C@H]3[C@@H]4C[C@H](F)C5=CC(=O)C=C[C@]5(C)[C@@]4(F)[C@@H](O)C[C@]3(C)[C@]2(C(=O)CO)O1` [Fluocinolone, fluocinolone acetonide], at hGR(I747/T), the “transactivation by the I747/T mutant receptor compared with wild-type receptor” value is given as “a higher activity”, the “Luciferase activity % hGR (I747/T)” value is 100%, a half-maximal effect (EC50) was put at 3 nM and the “% EC50” value is on record as 20%. Further, on wild-type hGR, the “Luciferase activity % Wild type” value is 75% and the concentration for a half-maximal effect (EC50) turned out to be 0.15 nM.

For `CC#C[C@]1(O)CC[C@H]2[C@@H]3C=C(C)C4=CC(=O)C=C[C@]4(C)[C@H]3[C@@H](O)C[C@@]21C` [RU28362], at hGR(I747/T), the “transactivation by the I747/T mutant receptor compared with wild-type receptor” value is listed as “the same transactivation as with the wild-type receptor”; the “Luciferase activity % hGR (I747/T)” value turned out to be 88%; the midpoint of the response, the EC50, lay at 7 nM; the “% EC50” value is reported as 23%. Further, on wild-type hGR, the “Luciferase activity % Wild type” value is 90% and a half-maximal response (EC50) required 0.3 nM.

For bimedrazol, on hGR(I747/T), the “transactivation by the I747/T mutant receptor compared with wild-type receptor” value was “a higher activity”, the “Luciferase activity % hGR (I747/T)” value turned out to be 180%, it took 2 nM to reach a half-maximal effect (EC50) and the “% EC50” value was determined as 20%. On wild-type hGR, the “Luciferase activity % Wild type” value came to 100% and the half-maximal effective concentration (EC50) came to 0.1 nM.

Turning to `CC1(C)O[C@@H]2C[C@H]3[C@@H]4CCC5=CC(=O)C=C[C@]5(C)[C@@]4(F)[C@@H](O)C[C@]3(C)[C@]2(C(=O)CO)O1` [TA, triamcinolone acetonide], on hGR(I747/T), the “Luciferase activity % hGR (I747/T)” value was 102% and the EC50 amounted to 20 nM. Further, on wild-type hGR, the “Luciferase activity % Wild type” value came to 98% and the EC50 was 0.5 nM.

For the molecule TAT promoter (pTAT-tk-Luc), two GREs, the 50% effective concentration (EC50) in data set [1] turned out to be 0.4 nM; in data set [2], 40 nM.

As to (17M)5 Gal4 response element, the concentration giving a half-maximal response (EC50) was 150 nM in data set [3] and 1.7 nM in data set [4].

B1: synthetic palindromic GRE (pGRE-tk-Luc) (dsDNA)
DNA 1: AGAACACAGTGTTCT
DNA 2: AGAACACTGTGTTCT
In data set [5], B1 had a concentration giving a half-maximal response (EC50) of 20 nM.

Usually EC50 stands for the concentration giving half of the maximal effect.

The record behind these values is US6699686B1, “Modified nuclear glucocorticoid receptor, fusion protein, and DNA fragments coding for said receptor and said fusion protein” (Association pour le Development de la Recherche en …, priority 1996, dated 2004).
